Assay results as given in patent publication US20100240581A1, “SELECTIVE PROTEASOME INHIBITORS FOR TREATING DIABETES” (The Trustees of Columbia University in the City of New York, priority 2006, published 2010).
Entries after “also recorded” stand apart in the source; their conditions may differ.

Legend:
male C57BL/6J ob/ob mice [1] = assay: Blood glucose in ob/ob mice on dietary curcumin; type: in vivo, mouse; settings: dietary curcumin (3%), p<0.05
male C57BL/Ks db/db mice [2] = assay: Blood glucose in db/db mice (dietary curcumin or single i.p. injection); type: in vivo, mouse; settings: for blood glucose after a single intraperitoneal injection: epoxomicin 0.1 mg/kg or celastrol 3 mg/kg i.p., male db/db mice, noted approximately 10 hours after injection; for duration of blood glucose lowering after injection: single i.p. injection
Source text: (§1) This translated into a daily consumption by the mice of roughly 1.0 to 1.5 g/kg/day.
Male C57BU6J mice gradually develop obesity and moderate diabetes when placed on high-fat diets, a process quite analogous to that in humans. […] However, the loss of leptin effect on the C57BL/Ks background is not compensated for by β-cell hyperplasia and hyperinsulinemia. At a very young age these mice become severely hyperglycemic, hyperphagic, and polydipsic. As they mature, they start to lose weight, develop nephropathy, and ultimately die around age 40 weeks from diabetic complications.
(§2) This effect was noted to last for at least 48 hours post-injection. Mice receiving vehicle in the celastrol and epoxomicin experiments were food entrained to the treatment group to avoid any acute effects on glucose levels from differences in food intake.

[3] = system: DIO C57BL/6J, C57BL/6J ob/ob and C57BL/Ks db/db mice; assay: Random fed glucose and HbA1c in the three mouse models of diabetes; type: in vivo
male C57BL/6J DIO mice [4] = assay: Glucose tolerance test in DIO mice; type: in vivo, mouse; settings: dietary curcumin
Procedure: as §1, §2

male C57BL/6J ob/ob mice [5] = assay: Insulin tolerance test in ob/ob mice; type: in vivo, mouse; settings: dietary curcumin (3%)
Procedure: as §1, §2

male C57BL/6J ob/ob mice [6] = assay: Body composition (Bruker NMR), food intake and liver in ob/ob mice; type: in vivo, mouse
male C57BL/6J DIO mice [7] = assay: Body composition, food intake and liver in DIO mice; type: in vivo, mouse
male C57BL/Ks db/db mice [8] = assay: Body composition (Bruker NMR), food intake and liver in db/db mice; type: in vivo, mouse; settings: dietary curcumin (3%)
[9] = system: TNF-α, Socs-3, Ccl2 (MCP-1 gene) and Ccr2 (MCP-1 receptor gene); assay: Quantitative real-time PCR of hepatic inflammatory genes in ob/ob mice; type: in vivo, mouse; settings: dietary curcumin, 10 weeks; male ob/ob mice
Source text: (§3) These included TNF-α, Socs-3, Ccl2 (MCP-1 gene) and Ccr2 (MCP-1 receptor gene).

NFkB p65 = assay: p65 activity assay (TransAM NFkB p65 Kit) in liver nuclear extracts of ob/ob mice; type: in vivo, mouse; settings: dietary curcumin, 10 weeks; liver nuclear extract of ob/ob mice
Source text: as §3

[10] = system: adiponectin (Acdc), F480 (Emr1); assay: Quantitative real-time PCR of white adipose tissue of ob/ob mice; type: in vivo, mouse; settings: dietary curcumin, 10 weeks; male ob/ob mice
Source text: (§4) Given that the adipose tissue of obese subjects is chronically inflamed and secretes diabetogenic adipokines, we investigated the possibility that proteasome inhibition improves diabetes by decreasing adipose inflammation in obese diabetic mice.

[11] = Serum adiponectin in ob/ob mice; type: in vivo, mouse; settings: curcumin-treated ob/ob mice (not shown)
Source text: as §4

[12] = system: macrophages in adipose tissue of ob/ob mice; assay: Adipose macrophage immunohistochemistry (F480 antibody) in ob/ob mice; type: in vivo, mouse; settings: dietary curcumin; male C57BL/6J ob/ob mice
[13] = Serum insulin in db/db mice; type: in vivo, mouse; settings: for serum insulin: single i.p. dose, celastrol 3 mg/kg or epoxomicin 0.1 mg/kg, 24 hours post injection, male C57BL/Ks db/db mice
Source text: (§5) As FIGS. 19 and 20 A-C reveal, untreated ob/ob mice develop pancreatic β-cell hyperplasia and hyperinsulinemia, a phenomenon that ultimately allows them to recoup normoglycemia. The pancreatic islets in untreated C57BL/Ks db/db mice however, degenerate (FIG. 20 D-F).

[14] = system: pancreatic islets of C57BL/Ks db/db mice; assay: Immunohistology of pancreatic islets in db/db mice; type: in vivo, mouse; settings: curcumin-treated C57BL/Ks db/db mice
Source text: as §5

[15] = system: diabetic streptozotocin-treated rat; settings: oral curcumin therapy; preclinical studies, mostly streptozotocin-treated rat; cited from earlier work
[16] = system: Glucotoxic HIT-T15 β-cells; settings: cited from earlier work
[17] = daily doses about 0.5 to about 3.0 mg/kg/d (i.p.); cited from earlier work
male C57BL/Ks db/db mice [18] = assay: Insulin tolerance test in db/db mice; type: in vivo, mouse; settings: celastrol i.p., 24 hours after a single injection
Procedure: as §2

[19] = system: adiponectin (Acdc), Ccl2 (MCP-1); assay: Gene expression in white adipose tissue of db/db mice after celastrol; type: in vivo, mouse; settings: celastrol i.p. once daily for 3 days; male db/db mice
rat β-cell line INS-1 = assay: INS-1 viable cell number (CellTiter-Blue Cell Viability Assay); type: cell-based; settings: INS-1 cells, 24 hours
Source text: To follow-up on the potential ability of proteasome inhibition to improve β-cell function, we performed experiments using the rat β-cell line Ins-1.

[20] = target: chymotrypsin-like activity of a purified 20S proteasome (Homo sapiens, UniProt P28074); settings: reported (ref. 83); cited from earlier work
[21] = target: T1, human prostate cancer cellular 26S proteasome (Homo sapiens, UniProt P28074); settings: reported (ref. 83); cited from earlier work
T1 construct: human prostate cancer cellular 26S proteasome

[22] = system: human prostrate cancer growth in nude mice; settings: tumor-bearing nude mice; 1-3 mg/kg/d (i.p.); cited from earlier work
[23] = curcumin-fed ob/ob mice vs controls (data not shown)
[24] = dietary curcumin (3%), ob/ob mice

COc1cc(/C=C/C(=O)CC(=O)/C=C/c2ccc(O)c(OC)c2)ccc1O [curcumin]
effect on hyperglycemia (blood glucose) (male C57BL/6J ob/ob mice [1]): significant protective effect against hyperglycemia
effect on hyperglycemia (blood glucose) (male C57BL/Ks db/db mice [2]; dietary curcumin (3%), male C57BL/Ks db/db mice, p<0.05): significant protection against hyperglycemia
HbA1c levels ([3]; 3% dietary curcumin, all mouse models of diabetes tested): significant decreases; also recorded: decreases HbA1c percentage
random fed glucose ([3]; 3% dietary curcumin, all three diabetic mice categories, as early as 2-3 weeks): significant decreases
HbA1c percentage in non-diabetic mice ([3]; dietary curcumin (3%), non-diabetic mice): not affected
AUC of glucose tolerance test (male C57BL/6J DIO mice [4]): improved glucose tolerance; also recorded: significantly lowers AUC of glucose
AUC of insulin tolerance test (male C57BL/6J ob/ob mice [5]): decreased area under the curve (AUC); also recorded: significantly lowers AUC of insulin tolerance test
degree of liver steatosis (male C57BL/6J ob/ob mice [6]; [23]): significantly lower
liver weight (male C57BL/6J ob/ob mice [6]; [23]): significantly lower
adipose mass / body fat (male C57BL/6J ob/ob mice [6]; [24]): significantly less body fat; also recorded: significantly decreases
body weight (male C57BL/6J ob/ob mice [6]; [24]): weighed slightly but significantly less; also recorded: significantly decreases body weight
lean body mass (NMR) (male C57BL/6J ob/ob mice [6]; [24]): significantly more lean mass; also recorded: significantly increases lean body mass
body weight (male C57BL/6J DIO mice [7]; 3% curcumin in food, DIO mice): weighed slightly but significantly less
liver weight (male C57BL/6J DIO mice [7]; curcumin treatment, DIO mice): significantly lower; also recorded: significantly decreased
degree of liver steatosis (male C57BL/6J DIO mice [7]; curcumin-fed DIO mice vs controls (data not shown)): significantly lower
body fat percentage / body fat (male C57BL/6J DIO mice [7]; one month of curcumin treatment, DIO mice): significantly less body fat; also recorded: significantly decreased body fat percentage
body weight (male C57BL/Ks db/db mice [8]): weighed more; also recorded: significantly increased
lean muscle mass (NMR) (male C57BL/Ks db/db mice [8]): significantly more lean mass; also recorded: significantly increased lean muscle mass
hepatic expression of pro-inflammatory genes (TNF-α, Socs-3, Ccl2, Ccr2) [9]: significantly downregulated; also recorded: significantly lowers hepatic expression of pro-inflammatory genes
hepatic NF-κB activity (NFkB p65): significantly less NFkB activity; also recorded: significantly decreases hepatic NF-κB activity
F480 (Emr1) expression in white adipose tissue [10]: significantly decreased macrophage-specific Emr1 (F480) expression; also recorded: decreases F480 (Emr1) expression
adiponectin (Acdc) expression in white adipose tissue [10]: dramatically increased; also recorded: significantly increases expression of adiponectin (Acdc)
serum adiponectin levels [11]: significantly higher
adipose macrophage infiltration (F480 staining) [12]: dramatic reduction in the number of macrophages; also recorded: significant reduction of adipose macrophage infiltration
serum insulin levels ([13]; dietary curcumin, db/db mice): exhibit hyperinsulinemia; also recorded: significantly increased serum insulin levels
proliferating β-cells (nuclear Ks67 immunoreactivity) [14]: contain some proliferating β-cells
pancreatic islet morphology (hyperplasia) ([14]; age 20 weeks): islets actually become hyperplastic; also recorded: hyperplasia of the pancreatic islets
diabetes-related hyperglycemia or end-organ damage [15]: prevents, delays, or ameliorates diabetes-related hyperglycemia or end-organ damage

CC(=O)N[C@@H](CSC(=O)[C@]1([C@@H](O)C(C)C)NC(=O)[C@H](C)[C@@H]1O)C(=O)O [lactacystin]
MafA protein [16]: caused an accumulation of MafA protein

CC[C@H](C)[C@H](NC(=O)[C@H]([C@@H](C)CC)N(C)C(C)=O)C(=O)N[C@H](C(=O)N[C@@H](CC(C)C)C(=O)[C@@]1(C)CO1)[C@@H](C)O [epoxomicin]
blood glucose after a single intraperitoneal injection (male C57BL/Ks db/db mice [2]): correction of hyperglycemia; also recorded: significantly lowers blood glucose
duration of blood glucose lowering after injection (male C57BL/Ks db/db mice [2]; male C57BL/Ks db/db mice): ~2 days
serum insulin [13]: significant increases in serum insulin; also recorded: significantly increase serum insulin
antiinflammatory activity [17]: exhibits antiinflammatory activity

celastrol
blood glucose after a single intraperitoneal injection (male C57BL/Ks db/db mice [2]): correction of hyperglycemia; also recorded: significantly lowers blood glucose
duration of blood glucose lowering after injection (male C57BL/Ks db/db mice [2]; male C57BL/Ks db/db mice): ~2 days
AUC of ITT (male C57BL/Ks db/db mice [18]): improved insulin tolerance; also recorded: significantly lower AUC of ITT
Ccl2 (MCP-1) expression in white adipose tissue [19]: significantly decreased adipose expression of Ccl-2; also recorded: decreasing expression of Ccl2 (MCP-1)
adiponectin (Acdc) expression in white adipose tissue [19]: significantly increased expression of adiponectin; also recorded: significantly increases expression of adiponectin (Acdc)
serum insulin [13]: significant increases in serum insulin; also recorded: significantly increase serum insulin
cell viability at highest concentrations (rat β-cell line INS-1): proved cytotoxic; also recorded: negative effects on cell viability
IC50 [20]: 2500 nM
concentration inhibiting human prostate cancer cellular 26S proteasome [21]: 1-5 μM/L
tumor growth [22]: inhibition of tumor growth
